Consider 31 compounds from publication PMC10222454, “Characterization of the Molecular Diversity and Degranulation Activity of Mastoparan Family Peptides from Wasp Venoms” (Toxins, 2023).

One assay deals with RBL-2H3 cells. Format: cell-based, rat. The protocol:
(§1) RBL-2H3 cells (rat mucosal-type mast cell line) and P815 cells (mouse mast cell tumor cell line) were obtained from the BeNa Culture Collection (Xinyang, China). RBL-2H3 cells were cultured in DMEM (Gibco, Wuhan, China) supplemented with 15% FBS (Gibco), and P815 cells were maintained in RPMI 1640 basic medium supplemented with 10% FBS and antibiotics (100 mg/L streptomycin and 1 × 10^5 U/L penicillin) in a humidified atmosphere (5% CO2, 37 °C).
(§2) Degranulation was analyzed by measuring the release of the granule marker N-acetyl-D-glucosaminidase (β-hexosaminidase), which colocalizes with histamine, as described in [24]. For this, 2 × 10^5 P815 cells/mL or 1.5 × 10^5 RBL-2H3 cells/mL were seeded in 96-well cell culture plates. Twelve hours later, the cells were incubated with various concentrations of mastoparans dissolved in 100 μL HEPES buffer (137 mM NaCl, 2.7 mM KCl, 1 mM MgCl2, 1.8 mM CaCl2, 20 mM HEPES, 1 mg/mL BSA, and 1 mg/mL glucose, pH 7.4) for 15 min at 37 °C and 5% CO2. Then, the reactions were quenched by the addition of 0.15 mL of ice-cold HEPES buffer. After centrifugation, the supernatants were sampled for the β-hexosaminidase assay. Briefly, 50 μL samples of the cell culture supernatants and 50 μL of the substrate, 5 mM p-nitrophenyl-N-acetyl-b-D-glucosaminide (Sigma) in 0.2 M citrate, pH 4.5, were incubated in 96-well plates at 37 °C and 5% CO2 for 16–18 h to yield the chromophore p-nitrophenol, and the reactions were stopped by the addition of 100 μL of 0.2 M glycine solution, pH 10.7. The absorbance of the colored product was assessed at 405 nm using a microtiter plate reader. The values for β-hexosaminidase released in the medium are expressed as the percentage of total β-hexosaminidase, which was measured in the cells after lysis in 0.1% Triton X-100. The experiment was repeated three times, and the results represent the mean and standard deviation (SD) of quadruplicate tests. The percent degranulation was calculated according to the following equation:Degranulation Rate (%) = 100% × (Amastoparans − AHEPES)/(ATriton X-100 − AHEPES).
Statistical analysis was performed with GraphPad Prism software. The curve of mast cell degranulation induced by wasp mastoparans was generated in SigmaPlot 12.5 software, and the EC50 was calculated according to the following equation (Four-Parameter Logistic Curve): y = min + (max − min)/(1 + (x/EC50) […] Hillslope).

For another assay, the system named is P815 cells. Put plainly: Mast cell degranulation activity (β-hexosaminidase release) in P815 cells. Format: cell-based, mouse. How it is done:
as §1, §2

The mark [1] stands for this setting: RBL-2H3 cells, 80 μg/mL peptide, 15 min at 37 °C, % of total β-hexosaminidase (0.1% Triton X-100 lysis).
Where [2] appears, read: P815 cells, 80 μg/mL peptide, 15 min at 37 °C, % of total β-hexosaminidase (0.1% Triton X-100 lysis).

Read-outs that look alike come from different tables or passages of the source. Ends that are not written are not given here.

Consider LNLKGLFKKVASLLT-OH [Eumenitin-F], for which, in the assay with RBL-2H3 cells (RBL-2H3 cells), the “degranulation of RBL-2H3 / mast cells, in words” value is reported as “hardly induced mast cell degranulation”. The “Degranulation at 80 μg/mL, RBL-2H3” value in the assay on RBL-2H3 cells (setting [1]) is on record as 2%. The “EC50 (μg/mL), RBL-2H3” value in the assay with RBL-2H3 cells (pH 7.4) is above 300 µg/mL. The “Degranulation at 80 μg/mL, P815” value with P815 cells (setting [2]) was below 20%.
With INMKAVAAVAKKPL-NH2 [Mastoparan-VB2], in the assay on RBL-2H3 cells (RBL-2H3 cells), the “degranulation of RBL-2H3 / mast cells, in words” value is given as “neither of them could induce the degranulation”. For the same compound, the “Degranulation at 80 μg/mL, RBL-2H3” value in the assay on RBL-2H3 cells (setting [1]) was found to be 0%. Moreover, in the assay on RBL-2H3 cells (pH 7.4), the EC50 was above 200 µM and the “EC50 (μg/mL), RBL-2H3” value is above 300 µg/mL. Besides, the “Degranulation at 80 μg/mL, P815” value in the assay with P815 cells (setting [2]) is listed as below 20%.
In the case of INWHDIAIKNIDAL-NH2 [Polybia-MPV], the “Degranulation at 80 μg/mL, RBL-2H3” value with RBL-2H3 cells (setting [1]) is 1%. In the assay on RBL-2H3 cells (pH 7.4), the EC50 was above 200 µM and the “EC50 (μg/mL), RBL-2H3” value was above 300 µg/mL. Moreover, in the assay on P815 cells (setting [2]), the “Degranulation at 80 μg/mL, P815” value is below 20%.
For the compound GRILSFIKGLAEHL-NH2 [EMP-OD], the “Degranulation at 80 μg/mL, RBL-2H3” value in the assay on RBL-2H3 cells (setting [1]) stood at 4%. Also, in the assay with RBL-2H3 cells (pH 7.4), the EC50 is above 200 µM and the “EC50 (μg/mL), RBL-2H3” value was above 300 µg/mL. The “Degranulation at 80 μg/mL, P815” value in the assay with P815 cells (setting [2]) is reported as below 20%.
On the same counts, the results for KDLHTVVSAILQAL-NH2 [OdVP3] are 5%, above 200 µM, above 300 µg/mL and below 20%.
On the same counts, the results for INWKKIAEVGGKILSSL-NH2 [Dominulin A] are 11%, above 200 µM, above 300 µg/mL and below 20%.
Take INLKAIAALAKKLL-NH2 [Mastoparan-M]: in the assay on RBL-2H3 cells, the “Degranulation at 80 μg/mL, RBL-2H3” value was found to be 10%. In addition, in the assay on RBL-2H3 cells (pH 7.4), the EC50 was above 200 µM and the “EC50 (μg/mL), RBL-2H3” value was above 300 µg/mL. Further, the “Degranulation at 80 μg/mL, P815” value with P815 cells is given as below 20%.
Turning to LNLKGLIKKVASLLN-OH [Eumenitin-R], the “degranulation of RBL-2H3 / mast cells, in words” value in the assay on RBL-2H3 cells (RBL-2H3 cells) was “hardly induced mast cell degranulation”. Further, the “Degranulation at 80 μg/mL, RBL-2H3” value in the assay with RBL-2H3 cells (setting [1]) is 14%. For the same compound, in the assay on RBL-2H3 cells (pH 7.4), the “EC50 (μg/mL), RBL-2H3” value was above 300 µg/mL. Moreover, the “Degranulation at 80 μg/mL, P815” value with P815 cells (setting [2]) is listed as below 20%.
For the compound `CC[C@H](C)[C@H](N)C(=O)N[C@@H](CC(N)=O)C(=O)N[C@@H](CC(C)C)C(=O)N[C@@H](CCCCN)C(=O)N[C@@H](C)C(=O)N[C@@H](CC(C)C)C(=O)N[C@@H](C)C(=O)N[C@@H](C)C(=O)N[C@@H](CC(C)C)C(=O)N[C@@H](C)C(=O)N[C@@H](CCCCN)C(=O)N[C@@H](CCCCN)C(=O)N[C@H](C(=O)N[C@@H](CC(C)C)C(N)=O)[C@@H](C)CC` [Mastoparan(-L), reference compound], in the assay with RBL-2H3 cells (pH 7.4), it took 52.1 ± 3.21 µM to reach a half-maximal effect (EC50).
For the compound IDWLKLRVISVIDL-NH2 [Polybia-MPIV], the “Degranulation at 80 μg/mL, RBL-2H3” value in the assay on RBL-2H3 cells (setting [1]) amounted to 6%. Also, in the assay on RBL-2H3 cells (pH 7.4), the EC50 is above 200 µM and the “EC50 (μg/mL), RBL-2H3” value is above 300 µg/mL. Moreover, the “Degranulation at 80 μg/mL, P815” value with P815 cells (setting [2]) is on record as below 20%.
On the same counts, the results for “INWKGIAAMKKLL-NH2 [Mastoparan-like peptide 12b]” are 11%, above 200 µM, above 300 µg/mL and below 20%.
For the compound INLKAIAALAKKLF-NH2 [Mastoparan-AF], the EC50 in the assay with RBL-2H3 cells (pH 7.4) is 18.1 ± 3.94 µM.
“INWLKLGKAVSAAL-NH2 [Protopolybia-MP III-8]” came in with an EC50 with RBL-2H3 cells of 140 ± 7.06 µM.
Consider IKWKAILDAVKKVL-NH2 [Mastoparan-A], for which the EC50 with RBL-2H3 cells (pH 7.4) turned out to be 28.4 ± 1.55 µM.
On the same count and under the same terms, under LKLLGIVKKVLGAI-NH2 [EMP-EM2] stands 72.8 ± 19.8 µM; under FDLLGLVKKVASAL-NH2 [EpVP2a], 31.6 ± 4.31 µM; under INWLKLGKKILGAI-NH2 [Pm-R1], 22.9 ± 4.77 µM.
Consider INMKASAAVAKKLL-NH2 [Mastoparan-VB1], for which the “degranulation of RBL-2H3 / mast cells, in words” value with RBL-2H3 cells (RBL-2H3 cells) was “neither of them could induce the degranulation”. For the same compound, the “Degranulation at 80 μg/mL, RBL-2H3” value in the assay on RBL-2H3 cells (setting [1]) is listed as −1%. For the same compound, in the assay on RBL-2H3 cells (pH 7.4), the EC50 was above 200 µM and the “EC50 (μg/mL), RBL-2H3” value is above 300 µg/mL. Also, in the assay on P815 cells (setting [2]), the “Degranulation at 80 μg/mL, P815” value is below 20%.
As for INWKGIAAMAKKLL-NH2 [Mastoparan-X(V)], the EC50 with RBL-2H3 cells (pH 7.4) came to 78.8 ± 15 µM.
On the same count and under the same terms, under INWKAILQRIKKML-NH2 [Agelaia-MPII] stands 34.7 ± 9.03 µM.
As to “INWLKLGKAVSAIL-NH2 [Protopolybia-MP III-11]”, in the assay with RBL-2H3 cells, the EC50 is above 325 µM. Moreover, in the assay on RBL-2H3 cells (mutants of Protopolybia-MPIII, Table 3), the “degranulation activity of mutant compared with Protopolybia-MPIII, in words” value was “significantly decreased”.
In the assay with RBL-2H3 cells (pH 7.4), INLKVFAALVKKFL-NH2 [Mastoparan-T1] yielded an EC50 of 32.1 ± 10 µM.
On the same count and under the same terms, for INLKAIAAFAKKLL-NH2 [Mastoparan-T] the value was 138 ± 68.4 µM; for INLLKIAKGIIKSL-NH2 [EMP-AF], 76.9 ± 19.6 µM; for INWLKLGKKILGAL-NH2 [PDD-B], 21.7 ± 3.78 µM.
In the case of INWKKIAEIGKQVLSAL-NH2 [Dominulin B], the “Degranulation at 80 μg/mL, RBL-2H3” value in the assay on RBL-2H3 cells (setting [1]) amounted to 24%. For the same compound, the “EC50 (μg/mL), RBL-2H3” value in the assay on RBL-2H3 cells (pH 7.4) amounted to 148.45 ± 51.31 µg/mL. In the assay on P815 cells (setting [2]), the “Degranulation at 80 μg/mL, P815” value is recorded as below 20%.
Turning to INWKKIASIGKEVLKAL-NH2 [PMM2], it took 36.6 ± 4.61 µM to reach a half-maximal effect in the assay on RBL-2H3 cells (pH 7.4) (EC50).
The same measure, in the same setting: for INWKAIIEAAKQAL-NH2 [Protopolybia-MPII] the value was 77.9 ± 9.08 µM.
The same measure, in the same setting: under INWKKMAATALKMI-NH2 [Parapolybia-MP] stands 89.4 ± 19.9 µM.
Take LNLKGIFKKVASLLT-OH [Eumenitin]: the “degranulation of RBL-2H3 / mast cells, in words” value with RBL-2H3 cells (RBL-2H3 cells) was “hardly induced mast cell degranulation”. For the same compound, in the assay on RBL-2H3 cells (setting [1]), the “Degranulation at 80 μg/mL, RBL-2H3” value was 8%. Also, the “EC50 (μg/mL), RBL-2H3” value in the assay with RBL-2H3 cells (pH 7.4) was above 300 µg/mL. Moreover, the “Degranulation at 80 μg/mL, P815” value in the assay on P815 cells (setting [2]) is listed as below 20%.
Regarding “INWLKLGKAVSDIL-NH2 [Protopolybia-MP III-9]”, the EC50 in the assay with RBL-2H3 cells worked out at 49.6 ± 1.73 µM.

Usually EC50 stands for the concentration needed to bring the measured effect to its halfway point.
